In US9670157B2, “Benzylamine derivatives” (KALVISTA PHARMACEUTICALS LIMITED, priority 2013, dated 2017):
pIC50: −log10 of the molar value. Like-named read-outs stand apart in the source and are kept apart here.

Key:
Human KLK1 = Human KLK1 (Homo sapiens (Human), UniProt P06870); test: Determination of the IC50 for KLK1; type: biochemical; conditions: 37° C., fluorogenic substrate H-DVal-Leu-Arg-AFC
Procedure: KLK1 inhibitory activity in vitro was determined using standard published methods (see e.g. Johansen et al., Int. J. Tiss. Reac. 1986, 8, 185; Shori et al., Biochem. Pharmacol., 1992, 43, 1209; Stürzebecher et al., Biol. Chem. Hoppe-Seyler, 1992, 373, 1025). Human KLK1 (Callbiochem) was incubated at 37° C. with the fluorogenic substrate H-DVal-Leu-Arg-AFC and various concentrations of the test compound. Residual enzyme activity (initial rate of reaction) was determined by measuring the change in optical absorbance at 410 nm and the IC50 value for the test compound was determined.

Human plasma kallikrein = Human plasma kallikrein (Homo sapiens (Human), UniProt P03952); test: Determination of the IC50 for Plasma Kallikrein; type: biochemical; conditions: read-out: IC50 (human PKal)
Chain of Human plasma kallikrein (P03952 391-638): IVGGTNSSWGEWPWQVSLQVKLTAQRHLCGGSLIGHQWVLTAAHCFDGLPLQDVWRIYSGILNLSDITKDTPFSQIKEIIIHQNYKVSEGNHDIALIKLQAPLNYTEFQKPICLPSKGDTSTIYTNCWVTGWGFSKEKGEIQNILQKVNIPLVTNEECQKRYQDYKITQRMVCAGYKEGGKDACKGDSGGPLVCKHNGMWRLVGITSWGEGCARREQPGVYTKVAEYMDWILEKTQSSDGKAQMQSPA
Chain of Human plasma kallikrein (P03952 20-390 partner): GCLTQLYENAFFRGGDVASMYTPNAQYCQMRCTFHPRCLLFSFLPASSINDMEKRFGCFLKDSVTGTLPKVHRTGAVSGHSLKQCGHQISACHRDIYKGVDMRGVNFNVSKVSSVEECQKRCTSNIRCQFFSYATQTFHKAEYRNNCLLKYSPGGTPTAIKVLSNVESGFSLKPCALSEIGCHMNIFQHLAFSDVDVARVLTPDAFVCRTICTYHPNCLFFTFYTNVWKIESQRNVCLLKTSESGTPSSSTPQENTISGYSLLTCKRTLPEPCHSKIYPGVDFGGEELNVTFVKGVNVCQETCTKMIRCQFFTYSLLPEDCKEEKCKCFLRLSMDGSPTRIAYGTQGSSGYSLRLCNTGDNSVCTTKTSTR
Procedure: Human plasma kallikrein (Protogen) was incubated at 37° C. with the fluorogenic substrate H-DPro-Phe-Arg-AFC and various concentrations of the test compound. Residual enzyme activity (initial rate of reaction) was determined by measuring the change in optical absorbance at 410 nm and the IC50 value for the test compound was determined.

[1] = 37° C., fluorogenic substrate H-DPro-Phe-Arg-AFC

Chain of Human KLK1 (P06870 25-262): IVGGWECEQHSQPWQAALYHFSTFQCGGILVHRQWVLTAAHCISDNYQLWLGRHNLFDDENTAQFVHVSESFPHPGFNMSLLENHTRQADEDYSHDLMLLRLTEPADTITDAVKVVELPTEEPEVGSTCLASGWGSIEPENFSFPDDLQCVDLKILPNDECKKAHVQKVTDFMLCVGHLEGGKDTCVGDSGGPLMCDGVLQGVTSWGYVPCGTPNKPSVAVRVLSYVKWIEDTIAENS

Structure (SMILES)	pIC50 (Human KLK1)	pIC50 (Human plasma kallikrein; [1])	pIC50 (Human plasma kallikrein)
CCn1c(C(=O)NCc2ccc(CN)cc2)cc(C)c1Cc1ccccc1 [Example 77, 5-Benzyl-1-ethyl-4-methyl-1H-pyrrole-2-carboxylic acid 4-aminomethyl-benzylamide]	< 5.00	5.43	–
CCCn1c(C(=O)NCc2ccc(CN)cc2)cc(C)c1Cc1ccccc1 [Example 78, 5-Benzyl-4-methyl-1-propyl-1H-pyrrole-2-carboxylic acid 4-aminomethyl-benzylamide]	< 5.00	5.38	–
CC(C)NC(=O)c1ccc(Cn2cc(C(=O)NCc3ccc(CN)cc3)cn2)cc1 [Example 79, 1-(4-Isopropylcarbamoyl-benzyl)-1H-pyrazole-4-carboxylic acid 4-aminomethyl-benzylamide]	< 5.00	5.26	–
Cc1c(C(=O)NCc2ccc(CN)cc2)cnn1Cc1csc(-c2ccccc2)n1 [Example 80, 5-Methyl-1-(2-phenyl-thiazol-4-ylmethyl)-1H-pyrazole-4-carboxylic acid 4-aminomethyl-benzylamide]	< 5.00	5.63	–
Cc1nn(Cc2csc(-c3ccccc3)n2)cc1C(=O)NCc1ccc(CN)cc1 [Example 81, 3-Methyl-1-(2-phenyl-thiazol-4-ylmethyl)-1H-pyrazole-4-carboxylic acid 4-aminomethyl-benzylamide]	< 5.00	6.16	–
NCc1ccc(CNC(=O)c2cnn(Cc3csc(-c4ccccc4)n3)c2C(F)(F)F)cc1 [Example 82, 1-(2-Phenyl-thiazol-4-ylmethyl)-5-trifluoromethyl-1H-pyrazole-4-carboxylic acid 4-aminomethyl-benzylamide]	< 5.06	6.31	–
Cc1cnn(Cc2ccc(Cn3cc(C(=O)NCc4ccc(CN)cc4)cn3)cc2)c1 [Example 85, 1-[4-(4-Methyl-pyrazol-1-ylmethyl)-benzyl]-1H-pyrazole-4-carboxylic acid 4-aminomethyl-benzylamide]	< 5.07	–	7.96
Cc1cc(C)n(Cc2ccc(Cn3cc(C(=O)NCc4ccc(CN)cc4)cn3)cc2)n1 [Example 86, 1-[4-(3,5-Dimethyl-pyrazol-1-ylmethyl)-benzyl]-1H-pyrazole-4-carboxylic acid 4-aminomethyl-benzylamide]	< 5.00	8.15	–
NCc1ccc(CNC(=O)c2cnn(Cc3ccc(C(=O)N4CCCCC4)cc3)c2)cc1 [Example 87, 1-[4-(Piperidine-1-carbonyl)-benzyl]-1H-pyrazole-4-carboxylic acid 4-aminomethyl-benzylamide]	< 5.00	5.26	–
NC1(c2ccc(CNC(=O)c3cnn(Cc4ccc(Cn5ccccc5=O)cc4)c3)cc2)CC1 [Example 89, 1-[4-(2-Oxo-2H-pyridin-1-ylmethyl)-benzyl]-1H-pyrazole-4-carboxylic acid 4-(1-amino-cyclopropyl)-benzylamide]	< 5.00	6.65	–
Cc1cc(C(=O)NCc2ccc(CN)cc2)c(C)n1Cc1ccc(Cn2ccccc2=O)cc1 [Example 90, 2,5-Dimethyl-1-[4-(2-oxo-2H-pyridin-1-ylmethyl)-benzyl]-1H-pyrrole-3-carboxylic acid 4-aminomethyl-benzylamide]	< 5.00	–	6.94
Cc1cc(CN)ccc1CNC(=O)c1cc(C)n(Cc2ccc(Cn3ccccc3=O)cc2)c1C [Example 91, 2,5-Dimethyl-1-[4-(2-oxo-2H-pyridin-1-ylmethyl)-benzyl]-1H-pyrrole-3-carboxylic acid 4-aminomethyl-2-methyl-benzylamide]	< 5.00	7.54	–
CCn1c(C(=O)NCc2ccc(CN)cc2C)cc(C)c1Cc1ccc(Cn2ccccc2=O)cc1 [Example 92, 1-Ethyl-4-methyl-5-[4-(2-oxo-2H-pyridin-1-ylmethyl)-benzyl]-1H-pyrrole-2-carboxylic acid 4-aminomethyl-2-methyl-benzylamide]	5.00	7.40	–
CCn1c(C(=O)NCc2ccc(C3(N)CC3)cc2)cc(C)c1Cc1ccc(Cn2ccccc2=O)cc1 [Example 93, 1-Ethyl-4-methyl-5-[4-(2-oxo-2H-pyridin-1-ylmethyl)-benzyl]-1H-pyrrole-2-carboxylic acid 4-(1-amino-cyclopropyl)-benzylamide]	< 5.00	5.55	–
Cc1cc(CN)cc(C)c1CNC(=O)c1cc(C)n(Cc2ccc(Cn3ccccc3=O)cc2)c1C [Example 94, 2,5-Dimethyl-1-[4-(2-oxo-2H-pyridin-1-ylmethyl)-benzyl]-1H-pyrrole-3-carboxylic acid 4-aminomethyl-2,6-dimethyl-benzylamide]	4.96	7.96	–
CCn1c(C(=O)NCc2c(C)cc(CN)cc2C)cc(C)c1Cc1ccc(Cn2ccccc2=O)cc1 [Example 95, 1-Ethyl-4-methyl-5-[4-(2-oxo-2H-pyridin-1-ylmethyl)-benzyl]-1H-pyrrole-2-carboxylic acid 4-aminomethyl-2,6-dimethyl-benzylamide]	5.41	7.80	–
Cc1cnn(Cc2ccc(Cn3c(C)cc(C(=O)NCc4ccc(CN)cc4)c3C)cc2)c1 [Example 96, 2,5-Dimethyl-1-[4-(4-methyl-pyrazol-1-ylmethyl)-benzyl]-1H-pyrrole-3-carboxylic acid 4-aminomethyl-benzylamide]	< 5.00	7.20	–
Cc1cnn(Cc2ccc(Cn3c(C)cc(C(=O)NCc4ccc(CN)cc4C)c3C)cc2)c1 [Example 97, 2,5-Dimethyl-1-[4-(4-methyl-pyrazol-1-ylmethyl)-benzyl]-1H-pyrrole-3-carboxylic acid 4-aminomethyl-2-methyl-benzylamide]	< 5.00	7.55	–
Cc1cnn(Cc2ccc(Cn3c(C)cc(C(=O)NCc4ccc(C5(N)CC5)cc4)c3C)cc2)c1 [Example 98, 2,5-Dimethyl-1-[4-(4-methyl-pyrazol-1-ylmethyl)-benzyl]-1H-pyrrole-3-carboxylic acid 4-(1-amino-cyclopropyl)-benzylamide]	< 5.00	6.15	–
CCn1c(C(=O)NCc2ccc(CN)cc2C)cc(C)c1Cc1ccc(Cn2cc(C)cn2)cc1 [Example 99, 1-Ethyl-4-methyl-5-[4-(4-methyl-pyrazol-1-ylmethyl)-benzyl]-1H-pyrrole-2-carboxylic acid 4-aminomethyl-2-methyl-benzylamide]	< 5.00	7.42	–
CCn1c(C(=O)NCc2ccc(C3(N)CC3)cc2)cc(C)c1Cc1ccc(Cn2cc(C)cn2)cc1 [Example 100, 1-Ethyl-4-methyl-5-[4-(4-methyl-pyrazol-1-ylmethyl)-benzyl]-1H-pyrrole-2-carboxylic acid 4-(1-amino-cyclopropyl)-benzylamide]	< 5.00	5.63	–
CCn1c(C(=O)NCc2c(C)cc(CN)cc2C)cc(C)c1Cc1ccc(Cn2cc(C)cn2)cc1 [Example 102, 1-Ethyl-4-methyl-5-[4-(4-methyl-pyrazol-1-ylmethyl)-benzyl]-1H-pyrrole-2-carboxylic acid 4-aminomethyl-2,6-dimethyl-benzylamide]	5.37	7.96	–
Cc1cnn(Cc2ccc(Cn3cc(C(=O)NCc4ccc(C5(N)CC5)cc4)cn3)cc2)c1 [Example 103, 1-[4-(4-Methyl-pyrazol-1-ylmethyl)-benzyl]-1H-pyrazole-4-carboxylic acid 4-(1-amino-cyclopropyl)-benzylamide]	< 5.00	6.16	–
